Experiments:
[1] = biological target: human CD28 Protein, His Tag (Homo sapiens, UniProt P10747); assay: MST / TRIC; format: binding
[2] = biological target: Biotinylated human CD28 protein (His-tagged, AviTag) (Homo sapiens, UniProt P10747); assay: SPR; format: binding
Sequence of Biotinylated human CD28 protein (His-tagged, AviTag) (P10747 19-152 limits assumed): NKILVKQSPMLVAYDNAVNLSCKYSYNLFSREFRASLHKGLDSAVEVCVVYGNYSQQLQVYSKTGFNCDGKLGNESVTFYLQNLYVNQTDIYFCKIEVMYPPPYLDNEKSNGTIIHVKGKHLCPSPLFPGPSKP

Sequence of human CD28 Protein, His Tag (P10747 19-152): as the sequence (P10747 19-152 limits assumed) above

| SMILES | Kd [1] | Kd [2] |
| --- | --- | --- |
| O=C(Cc1ccccc1)c1cc(O)c(O)c([N+](=O)[O-])c1 [1F19, Nebicapone] | 45.1 ± 68.9 µM | – |
| CCN(CC)C(=O)/C(C#N)=C/c1cc(O)c(O)c([N+](=O)[O-])c1 [1I03, Entacapone] | 45.6 ± 52.1 µM | – |
| CN1c2ccc([N+](=O)[O-])cc2N=C(c2ccc(C(=O)O)cc2)c2cc3c(cc21)C(C)(C)CCC3(C)C [1K19, HX531] | 245 ± 151 µM | – |
| Nc1c(C(=O)O)c2nc3c(C(=O)O)cccc3oc-2cc1=O [1O03, Cinnabarinic acid] | 14.6 ± 8.23 µM | – |
| CNc1nc2ccccc2n2c(-c3ccc(O)c(O)c3)cnc12 [2B06, EAPB 02303] | 8.37 ± 4.42 µM | – |
| Cc1nc(C#Cc2ccnc(Cl)c2)c(C)n1-c1ccc(OC(F)(F)F)cc1 [2B10, CTEP] | 236 ± 110 µM | 181 ± 53 µM |
| CC(C)=CCC/C(C)=C/CC/C(C)=C/C=C/C(C)=C/C(=O)O [2L10, Peretinoin] | 283 ± 398 µM | – |
